IC50 data for one molecule are collected here from US20210379210A1, “RADIOLIGANDS FOR IMAGING THE LPA1 RECEPTOR” (BRISTOL-MYERS SQUIBB COMPANY, priority 2018, published 2021).

The target in the assay is human LPA1 (Homo sapiens, UniProt Q92633). Put plainly: In-vitro whole cell binding: competition with the ^18F tracer. The settings on record: CHO cells overexpressing human LPA1; ^18F tracer 3.8 nM; room temperature 1 hr; read-out: IC50, inhibition of binding of the ^18F tracer. How it is done: The effectiveness of compounds of the present invention as LPA1 inhibitors can be determined in an LPA1 binding assay as follows: Chinese hamster ovary cells overexpressing human LPA1 were maintained in F12 medium (Gibco #11765) supplemented with 10% fetal bovine serum and 1 mg/ml hygromycin (Invitrogen #10687-010). On day of assay, 150 cm^2 flasks of subconfluent cells were harvested with TripLE Express Dissociation reagent (Gibco #12605-010), counted, centrifuged, and resuspended in ice-cold Binding Assay Buffer (BAB: 50 mM HEPES pH 7.2, 100 mM NaCl, 2 mM EDTA) at 2×10^6 cells per ml. Cells were kept on ice until use. Test compound dilution plates were prepared by serially diluting test compounds (2 mM stock in 100% DMSO, […] dilutions) in DMSO, then diluting 1:50 in BAB to generate twelve half-log test concentrations at 4× final concentration. Binding assay were carried out in non-binding surface 96-well plates (Corning #3605) at room temperature for 1 hour. […] Individual filter discs were cut out of the filter plate and counted in a gamma counter. IC50 values were determined by fitting the data to a 4-parameter logistic equation (GraphPad Prism, San Diego Calif.).
human LPA1, sequence (Q92633 whole entry): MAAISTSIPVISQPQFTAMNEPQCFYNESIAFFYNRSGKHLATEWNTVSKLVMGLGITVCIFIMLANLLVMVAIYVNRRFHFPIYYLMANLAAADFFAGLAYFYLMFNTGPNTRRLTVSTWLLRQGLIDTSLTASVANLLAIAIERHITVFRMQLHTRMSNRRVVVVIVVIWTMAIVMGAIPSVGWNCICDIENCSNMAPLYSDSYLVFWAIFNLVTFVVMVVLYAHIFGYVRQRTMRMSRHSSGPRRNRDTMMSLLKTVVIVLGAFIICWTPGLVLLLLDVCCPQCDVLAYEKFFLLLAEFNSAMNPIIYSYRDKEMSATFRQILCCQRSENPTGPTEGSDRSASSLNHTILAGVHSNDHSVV

Usually IC50 stands for the concentration needed to halve the response being measured. Regarding `Cc1nc(-c2nnn(C)c2COC(=O)N(C)CCCCF)ccc1O[C@H]1CCC[C@H](C(=O)O)C1` [Example 14], the IC50 is 24.5 nM.
